MIC data for 31 molecules are collected here from ChEMBL document CHEMBL1154173, “L-proline-catalysed facile green protocol for the synthesis and antimycobacterial evaluation of [1,4]-thiazines” (2009).

Values after ≈ are worked out from the molar mass of the structure shown.

A word on the MIC: it is the lowest concentration found to suppress growth. A lower MIC goes with a more susceptible organism.

Assay [1] concerns Mycobacterium tuberculosis. In words: Antimycobacterial activity against Mycobacterium tuberculosis H37Rv by agar dilution method. In kind it is functional. (In general: In agar dilution the substance is mixed into plates at graded concentrations.)
Assay [2] has as its system Mycolicibacterium smegmatis. The assay is described as follows: Antimycobacterial activity against […] Mycobacterium smegmatis MC2 by agar dilution method. In kind it is functional.

As for `CCOC(=O)C1C(c2ccccc2Br)N(C)C(c2ccccc2Br)C(C(=O)c2ccc(Cl)cc2)S1(=O)=O` (racemic), the MIC in assay [1] worked out at 9.33 µM (≈ 6.25 µg/mL); in assay [2], 18.7 µM (≈ 12.5 µg/mL).
For the molecule `CCOC(=O)C1C(c2ccco2)N(C)C(c2ccco2)C(C(=O)c2ccc(Cl)cc2)S1(=O)=O` (racemic), the MIC amounted to 6.36 µM (≈ 3.13 µg/mL) in assay [1] and 50.8 µM (≈ 25 µg/mL) in assay [2].
`CCOC(=O)C1C(c2ccco2)NC(c2ccco2)C(C(=O)c2ccc(Cl)cc2)S1(=O)=O` (racemic) gave a minimal inhibitory concentration (MIC) in assay [1] of 6.55 µM (≈ 3.13 µg/mL).
As to `CCOC(=O)C1C(c2cccc3ccccc23)NC(c2cccc3ccccc23)C(C(=O)c2ccc(Cl)cc2)S1(=O)=O` (racemic), the values for the minimum inhibitory concentration (MIC) in assay [1] and in assay [2] were 10.4 µM (≈ 6.25 µg/mL) and 20.9 µM (≈ 12.5 µg/mL), respectively.
For `CCOC(=O)C1C(c2ccc(Cl)cc2)N(Cc2ccccc2)C(c2ccc(Cl)cc2)C(C(=O)c2ccc(Cl)cc2)S1(=O)=O` (racemic) the same measures were 9.51 µM (≈ 6.25 µg/mL) and 38 µM (≈ 25 µg/mL).
For `CCOC(=O)C1C(c2cccc([N+](=O)[O-])c2)N(C)C(c2cccc([N+](=O)[O-])c2)C(C(=O)c2ccc(Cl)cc2)S1(=O)=O` (racemic) the same measures were 20.8 µM (≈ 12.5 µg/mL) and 41.5 µM (≈ 25 µg/mL).
Consider `CCOC(=O)C1C(c2ccccc2)N(Cc2ccccc2)C(c2ccccc2)C(C(=O)c2ccc(Cl)cc2)S1(=O)=O` (racemic), for which the minimal inhibitory concentration (MIC) in assay [1] and in assay [2] was 42.5 µM (≈ 25 µg/mL) throughout.
In the case of `CCOC(=O)C1C(c2cccc(F)c2)N(Cc2ccccc2)C(c2cccc(F)c2)C(C(=O)c2ccc(Cl)cc2)S1(=O)=O` (racemic), the results for the MIC in assay [1] and in assay [2] were 10 µM (≈ 6.25 µg/mL) and 40.1 µM (≈ 25 µg/mL), respectively.
Take `CCOC(=O)C1C(c2ccc(Cl)cc2)N(C)C(c2ccc(Cl)cc2)C(C(=O)c2ccc(Cl)cc2)S1(=O)=O` (racemic): the MIC is 5.39 µM (≈ 3.13 µg/mL) in assay [1] and 43 µM (≈ 25 µg/mL) in assay [2].
In assay [1], `CCOC(=O)C1C(c2ccccc2[N+](=O)[O-])NC(c2ccccc2[N+](=O)[O-])C(C(=O)c2ccc(Cl)cc2)S1(=O)=O` (racemic) returned an MIC of 3.03 µM (≈ 1.78 µg/mL).
`CCOC(=O)C1C(c2ccc(C)cc2)NC(c2ccc(C)cc2)C(C(=O)c2ccc(Cl)cc2)S1(=O)=O` (racemic): the MIC was determined as 1.48 µM (≈ 0.779 µg/mL) in assay [1] and 2.97 µM (≈ 1.56 µg/mL) in assay [2].
For `CCOC(=O)C1C(c2ccccc2OC)NC(c2ccccc2OC)C(C(=O)c2ccc(Cl)cc2)S1(=O)=O` (racemic) the same measures were 5.61 µM (≈ 3.13 µg/mL) and 11.2 µM (≈ 6.25 µg/mL).
In assay [1], `CCOC(=O)C1C(c2ccc(Cl)cc2Cl)NC(c2ccc(Cl)cc2Cl)C(C(=O)c2ccc(Cl)cc2)S1(=O)=O` (racemic) displayed an MIC of 1.23 µM (≈ 0.782 µg/mL).
Turning to `CCOC(=O)C1C(c2ccc(OC)cc2)NC(c2ccc(OC)cc2)C(C(=O)c2ccc(Cl)cc2)S1(=O)=O` (racemic), the minimum inhibitory concentration (MIC) in assay [1] stood at 0.72 µM (≈ 0.402 µg/mL); in assay [2], 1.4 µM (≈ 0.781 µg/mL).
The corresponding values for `CCOC(=O)C1C(c2ccccc2)N(C)C(c2ccccc2)C(C(=O)c2ccc(Cl)cc2)S1(=O)=O` (racemic) are 24.4 µM (≈ 12.5 µg/mL) and 48.8 µM (≈ 25 µg/mL).
For `CCOC(=O)C1C(c2ccc(Cl)cc2)NC(c2ccc(Cl)cc2)C(C(=O)c2ccc(Cl)cc2)S1(=O)=O` (racemic) the same measures were 2.75 µM (≈ 1.56 µg/mL) and 11 µM (≈ 6.25 µg/mL).
For `CCOC(=O)C1C(c2ccccc2)NC(c2ccccc2)C(C(=O)c2ccc(Cl)cc2)S1(=O)=O` (racemic) the same measures were 12.6 µM (≈ 6.25 µg/mL) and 50.2 µM (≈ 25 µg/mL).
With `CCOC(=O)C1C(c2ccc(N(C)C)cc2)NC(c2ccc(N(C)C)cc2)C(C(=O)c2ccc(Cl)cc2)S1(=O)=O` (racemic), in assay [1], 10.7 µM (≈ 6.25 µg/mL) was the least that counted as inhibitory (MIC).
Take `CCOC(=O)C1C(c2ccccc2C)N(C)C(c2ccccc2C)C(C(=O)c2ccc(Cl)cc2)S1(=O)=O` (racemic): the MIC in assay [1] worked out at 11.6 µM (≈ 6.25 µg/mL); in assay [2], 23.1 µM (≈ 12.5 µg/mL).
Molecule `CCOC(=O)C1C(c2ccc(C)cc2)N(C)C(c2ccc(C)cc2)C(C(=O)c2ccc(Cl)cc2)S1(=O)=O` (racemic) yielded a minimum inhibitory concentration (MIC) in assay [1] of 5.8 µM (≈ 3.13 µg/mL).
In the case of `CCOC(=O)C1C(c2cccc([N+](=O)[O-])c2)NC(c2cccc([N+](=O)[O-])c2)C(C(=O)c2ccc(Cl)cc2)S1(=O)=O` (racemic), the MIC worked out at 5.32 µM (≈ 3.13 µg/mL) in assay [1] and 10.6 µM (≈ 6.25 µg/mL) in assay [2].
For the molecule `CCOC(=O)C1C(c2cccc(F)c2)NC(c2cccc(F)c2)C(C(=O)c2ccc(Cl)cc2)S1(=O)=O` (racemic), the lowest concentration to inhibit growth in assay [1] (MIC) was 5.86 µM (≈ 3.13 µg/mL).
In the case of `CCOC(=O)C1C(c2cccs2)NC(c2cccs2)C(C(=O)c2ccc(Cl)cc2)S1(=O)=O` (racemic), the minimal inhibitory concentration (MIC) in assay [1] and in assay [2] was 12.2 µM (≈ 6.25 µg/mL) each time.
With `CCOC(=O)C1C(c2ccc([N+](=O)[O-])cc2)NC(c2ccc([N+](=O)[O-])cc2)C(C(=O)c2ccc(Cl)cc2)S1(=O)=O` (racemic), the MIC in assay [1] stood at 0.68 µM (≈ 0.4 µg/mL); in assay [2] it was 10.6 µM (≈ 6.25 µg/mL).
The corresponding values for `CCOC(=O)C1C(c2ccc(C)cc2)N(Cc2ccccc2)C(c2ccc(C)cc2)C(C(=O)c2ccc(Cl)cc2)S1(=O)=O` (racemic) are 20.3 µM (≈ 12.5 µg/mL) and 40.6 µM (≈ 25 µg/mL).
`CCOC(=O)C1C(c2ccc(OC)cc2)N(Cc2ccccc2)C(c2ccc(OC)cc2)C(C(=O)c2ccc(Cl)cc2)S1(=O)=O` (racemic): 9.64 µM (≈ 6.25 µg/mL) was the least that counted as inhibitory in assay [1] (MIC).
As to `CCOC(=O)C1C(c2ccc(F)cc2)N(Cc2ccccc2)C(c2ccc(F)cc2)C(C(=O)c2ccc(Cl)cc2)S1(=O)=O` (racemic), the minimal inhibitory concentration (MIC) in assay [1] turned out to be 5.02 µM (≈ 3.13 µg/mL); in assay [2], 40.1 µM (≈ 25 µg/mL).
In assay [1], `CC[C@@H](CO)NCCN[C@@H](CC)CO` [ETHAMBUTOL] had an MIC of 7.64 µM (≈ 1.56 µg/mL).
Turning to `NNC(=O)c1ccncc1` [ISONIAZID], the minimum inhibitory concentration (MIC) in assay [1] amounted to 0.36 µM (≈ 0.0494 µg/mL); in assay [2], 45.6 µM (≈ 6.25 µg/mL).
In assay [1], `NC(=O)c1cnccn1` [PYRAZINAMIDE] registered an MIC of 50.8 µM (≈ 6.25 µg/mL).
On the same count and under the same terms, under `CO[C@H]1/C=C/O[C@@]2(C)Oc3c(C)c(O)c4c(O)c(c(/C=N/N5CCN(C)CC5)c(O)c4c3C2=O)NC(=O)/C(C)=C\C=C\[C@H](C)[C@H](O)[C@@H](C)[C@@H](O)[C@@H](C)[C@H](OC(C)=O)[C@@H]1C` [RIFAMPIN] stands 0.12 µM (≈ 0.0988 µg/mL).
